The values that follow come from patent publication US11357651B2, “Stent assembly and method of preparing the stent assembly” (Nanyang Technological University, priority 2015, dated 2022).

Structures are written as SMILES.

The test system of the test is human bladder stroma fibroblasts. Kind of test: Cell work: fibroblast viability (prestoblue) after mitomycin C treatment. The test is classed as cell-based. The note with it: 3 days of drug treatment. The protocol:
FIGS. 13(A) and (B) are graphs showing (A) relative cell count vs MMC concentrations (μg/mL), and (B) dose-response curve.
In each well of a 96 well cell culture plate, 3000 human bladder stroma fibroblasts cells are seeded. After one day of seeding, different concentrations of mitomycin C dissolved in cell media (200 μL) were added to the well. After 3 days of drug treatment, the drug media was removed and the well added with 70 μL of a cell viability reagent, prestoblue, in the ratio of 9:1 (cell media: prestoblue).

Turning to `CO[C@@]12[C@H](COC(N)=O)C3=C(C(=O)C(C)=C(N)C3=O)N1C[C@@H]1N[C@@H]12` [MMC, mitomycin C], the GI50 entry was “about 0.115 μg/mL” and the “minimum concentration of MMC required to cause death of / inhibit proliferation of fibroblasts” value stood at 0.01 µg/mL.
